Data as given in PubChem BioAssay AID1259407 (Chemical Carcinogenesis Research Information System (CCRIS), 2018).
Activity calls are given as the source filed them. No rule for the calls is given here.

System: CCRIS mutagenicity, Ames/micronucleus/aberration tests
Assay: CCRIS mutagenicity studies
[1] = Test System: AMES SALMONELLA TYPHIMURIUM, Strain/Indicator: TA98, Metabolic Activation: NONE, Method: STANDARD PLATE
[2] = Test System: AMES SALMONELLA TYPHIMURIUM, Strain/Indicator: TA100, Metabolic Activation: NONE, Method: STANDARD PLATE
[3] = Test System: AMES SALMONELLA TYPHIMURIUM, Strain/Indicator: TA98, Metabolic Activation: NONE, Method: PREINCUBATION
[4] = Test System: AMES SALMONELLA TYPHIMURIUM, Strain/Indicator: TA100, Metabolic Activation: NONE, Method: PREINCUBATION
[5] = Test System: AMES SALMONELLA TYPHIMURIUM, Strain/Indicator: TA1535, Metabolic Activation: NONE, Method: PREINCUBATION
[6] = Test System: AMES SALMONELLA TYPHIMURIUM, Strain/Indicator: TA1537, Metabolic Activation: NONE, Method: PREINCUBATION

O[C@H]1C=Cc2c(ccc3cc4c5c(ccc4cc23)[C@H](O)[C@@H](O)C=C5)[C@@H]1O
mutagenic call (Test System: AMES SALMONELLA TYPHIMURIUM, Strain/Indicator: TA100, Metabolic Activation: RAT, LIVER, S-9, AROCLOR 1254, Method: STANDARD PLATE): inactive; negative

c1cc2ccc3cc4ccoc4c4ccc(c1)c2c34
mutagenic call [1]: inactive; negative | mutagenic call (Test System: AMES SALMONELLA TYPHIMURIUM, Strain/Indicator: TA98, Metabolic Activation: RAT, LIVER, S-9, AROCLOR 1254, Method: STANDARD PLATE): active; positive

CC(=O)c1ccco1
mutagenic call [1]: inactive; negative | mutagenic call (Test System: AMES SALMONELLA TYPHIMURIUM, Strain/Indicator: TA98, Metabolic Activation: S-9, Method: STANDARD PLATE): active; positive | mutagenic call [2]: inactive; negative | mutagenic call (Test System: AMES SALMONELLA TYPHIMURIUM, Strain/Indicator: TA100, Metabolic Activation: S-9, Method: STANDARD PLATE): inactive; negative

OC1c2cccc3ccc4cccc1c4c23
mutagenic call (Test System: AMES SALMONELLA TYPHIMURIUM, Strain/Indicator: TA98, Metabolic Activation: HUMAN, LIVER, CYTOSOL, PAPS, Method: PREINCUBATION): inactive; negative

CCCCOC(=O)c1ccccc1N
mutagenic call (Test System: AMES SALMONELLA TYPHIMURIUM, Strain/Indicator: TA98, Metabolic Activation: HAMSTER, LIVER, S-9, AROCLOR 1254 (10%), Method: PREINCUBATION): inactive; negative | mutagenic call [3]: inactive; negative | mutagenic call (Test System: AMES SALMONELLA TYPHIMURIUM, Strain/Indicator: TA98, Metabolic Activation: RAT, LIVER, S-9, AROCLOR 1254 (10%), Method: PREINCUBATION): inactive; negative | mutagenic call (Test System: AMES SALMONELLA TYPHIMURIUM, Strain/Indicator: TA100, Metabolic Activation: HAMSTER, LIVER, S-9, AROCLOR 1254 (10%), Method: PREINCUBATION): inactive; negative | mutagenic call [4]: inactive; negative | mutagenic call (Test System: AMES SALMONELLA TYPHIMURIUM, Strain/Indicator: TA100, Metabolic Activation: RAT, LIVER, S-9, AROCLOR 1254 (10%), Method: PREINCUBATION): inactive; negative | mutagenic call (Test System: AMES SALMONELLA TYPHIMURIUM, Strain/Indicator: TA1535, Metabolic Activation: HAMSTER, LIVER, S-9, AROCLOR 1254 (10%), Method: PREINCUBATION): inactive; negative | mutagenic call [5]: inactive; negative | mutagenic call (Test System: AMES SALMONELLA TYPHIMURIUM, Strain/Indicator: TA1535, Metabolic Activation: RAT, LIVER, S-9, AROCLOR 1254 (10%), Method: PREINCUBATION): inactive; negative | mutagenic call (Test System: AMES SALMONELLA TYPHIMURIUM, Strain/Indicator: TA1537, Metabolic Activation: HAMSTER, LIVER, S-9, AROCLOR 1254 (10%), Method: PREINCUBATION): inactive; negative | mutagenic call [6]: inactive; negative | mutagenic call (Test System: AMES SALMONELLA TYPHIMURIUM, Strain/Indicator: TA1537, Metabolic Activation: RAT, LIVER, S-9, AROCLOR 1254 (10%), Method: PREINCUBATION): inactive; negative

O=C1c2ccccc2C(=O)c2c1cc(O)c(CO)c2O
mutagenic call [3]: active; positive | mutagenic call (Test System: AMES SALMONELLA TYPHIMURIUM, Strain/Indicator: TA98, Metabolic Activation: RAT, LIVER, S-9, AROCLOR 1254, Method: PREINCUBATION): active; positive | mutagenic call (Test System: AMES SALMONELLA TYPHIMURIUM, Strain/Indicator: TA98, Metabolic Activation: RAT, LIVER, S-9, PCB, Method: PREINCUBATION): active; positive | mutagenic call [4]: active; positive | mutagenic call (Test System: AMES SALMONELLA TYPHIMURIUM, Strain/Indicator: TA100, Metabolic Activation: RAT, LIVER, S-9, AROCLOR 1254, Method: PREINCUBATION): active; positive | mutagenic call (Test System: AMES SALMONELLA TYPHIMURIUM, Strain/Indicator: TA100, Metabolic Activation: RAT, LIVER, S-9, PCB, Method: PREINCUBATION): active; positive | mutagenic call (Test System: AMES SALMONELLA TYPHIMURIUM, Strain/Indicator: TA102, Metabolic Activation: NONE, Method: PREINCUBATION): active; positive | mutagenic call (Test System: AMES SALMONELLA TYPHIMURIUM, Strain/Indicator: TA102, Metabolic Activation: RAT, LIVER, S-9, AROCLOR 1254, Method: PREINCUBATION): active; positive | mutagenic call (Test System: AMES SALMONELLA TYPHIMURIUM, Strain/Indicator: TA102, Metabolic Activation: RAT, LIVER, S-9, Method: PREINCUBATION): active; positive | mutagenic call (Test System: AMES SALMONELLA TYPHIMURIUM, Strain/Indicator: TA104, Metabolic Activation: NONE, Method: PREINCUBATION): active; positive | mutagenic call (Test System: AMES SALMONELLA TYPHIMURIUM, Strain/Indicator: TA104, Metabolic Activation: RAT, LIVER, S-9, AROCLOR 1254, Method: PREINCUBATION): active; positive | mutagenic call [5]: inactive; negative | mutagenic call (Test System: AMES SALMONELLA TYPHIMURIUM, Strain/Indicator: TA1535, Metabolic Activation: RAT, LIVER, S-9, AROCLOR 1254, Method: PREINCUBATION): inactive; negative | mutagenic call [6]: active; positive | mutagenic call (Test System: AMES SALMONELLA TYPHIMURIUM, Strain/Indicator: TA1537, Metabolic Activation: RAT, LIVER, S-9, AROCLOR 1254, Method: PREINCUBATION): active; positive | mutagenic call (Test System: AMES SALMONELLA TYPHIMURIUM, Strain/Indicator: TA1537, Metabolic Activation: RAT, LIVER, S-9, Method: PREINCUBATION): active; positive | mutagenic call (Test System: AMES SALMONELLA TYPHIMURIUM, Strain/Indicator: TA1538, Metabolic Activation: NONE, Method: PREINCUBATION): active; positive | mutagenic call (Test System: AMES SALMONELLA TYPHIMURIUM, Strain/Indicator: TA1538, Metabolic Activation: RAT, LIVER, S-9, AROCLOR 1254, Method: PREINCUBATION): active; positive | mutagenic call (Test System: CHINESE HAMSTER V-79, Strain/Indicator: V-79/AZAGUANINE, Metabolic Activation: NONE, Method: STANDARD PLATE): active; positive | mutagenic call (Test System: UDS RODENT HEPATOCYTES, Strain/Indicator: THY INCORP, Metabolic Activation: NONE): active; positive

COc1ccc2c(c1)-c1nccc3cc(OC)c(OC)c(c13)C2=O
mutagenic call (Test System: AMES SALMONELLA TYPHIMURIUM, Strain/Indicator: TA98, Metabolic Activation: RAT, LIVER, S-9, PHENOBARBITAL AND BETA-NAPHTHOFLAVONE, Method: PREINCUBATION): active; positive

CC(C)N1C(=O)c2ccccc2NS1(=O)=O
mutagenic call (Test System: AMES SALMONELLA TYPHIMURIUM, Strain/Indicator: TA97, Metabolic Activation: NONE, Method: STANDARD PLATE): inactive; negative | mutagenic call (Test System: AMES SALMONELLA TYPHIMURIUM, Strain/Indicator: TA97, Metabolic Activation: RAT, LIVER, S-9, DELOR 103, Method: STANDARD PLATE): inactive; negative | mutagenic call [1]: inactive; negative | mutagenic call (Test System: AMES SALMONELLA TYPHIMURIUM, Strain/Indicator: TA98, Metabolic Activation: RAT, LIVER, S-9, DELOR 103, Method: STANDARD PLATE): inactive; negative | mutagenic call [2]: inactive; negative | mutagenic call (Test System: AMES SALMONELLA TYPHIMURIUM, Strain/Indicator: TA100, Metabolic Activation: RAT, LIVER, S-9, DELOR 103, Method: STANDARD PLATE): inactive; negative | mutagenic call (Test System: AMES SALMONELLA TYPHIMURIUM, Strain/Indicator: TA1535, Metabolic Activation: NONE, Method: STANDARD PLATE): inactive; negative | mutagenic call (Test System: AMES SALMONELLA TYPHIMURIUM, Strain/Indicator: TA1535, Metabolic Activation: RAT, LIVER, S-9, DELOR 103, Method: STANDARD PLATE): inactive; negative | mutagenic call (Test System: AMES SALMONELLA TYPHIMURIUM, Strain/Indicator: TA1538, Metabolic Activation: NONE, Method: STANDARD PLATE): inactive; negative | mutagenic call (Test System: AMES SALMONELLA TYPHIMURIUM, Strain/Indicator: TA1538, Metabolic Activation: RAT, LIVER, S-9, DELOR 103, Method: STANDARD PLATE): inactive; negative

N[C@@H](CCC(=O)N[C@@H](CS/C(Cl)=C\Cl)C(=O)NCC(=O)O)C(=O)O
mutagenic call (Test System: AMES SALMONELLA TYPHIMURIUM, Strain/Indicator: TA2638, Metabolic Activation: NONE, Method: PREINCUBATION): active; positive | mutagenic call (Test System: AMES SALMONELLA TYPHIMURIUM, Strain/Indicator: TA2638, Metabolic Activation: RAT, KIDNEY, CYTOSOL, Method: PREINCUBATION): active; positive | mutagenic call (Test System: AMES SALMONELLA TYPHIMURIUM, Strain/Indicator: TA2638, Metabolic Activation: RAT, KIDNEY, MICROSOMES, Method: PREINCUBATION): active; positive | mutagenic call (Test System: AMES SALMONELLA TYPHIMURIUM, Strain/Indicator: TA2638, Metabolic Activation: RAT, KIDNEY, MITOCHONDRIA, Method: PREINCUBATION): active; positive
